Here are results for 13 molecules from patent US20240166610A1, “SUBSTITUTED PYRIDAZINE PHENOL DERIVATIVES” (MEDSHINE DISCOVERY INC., priority 2021, published 2024).

Series [1] can be described thus: In vivo pharmacokinetic evaluation in SD rats. The conditions noted are these: male, rat, plasma, dose IV/PO 1/2 mg/kg; for half-life / clearance / Vd: 1 mg/kg; for half-life: IV, read-out: Half-life T1/2 (IV) (converted); for clearance: read-out: Clearance rate CL; for Vd: read-out: Tissue distribution Vdss; for AUC(0-t): PO, read-out: Area under drug-time curve AUC0-last PO; for bioavailability: read-out: Bioavailability F; for Cmax: read-out: Peak concentration Cmax. As for the experimental part: Experimental Example 3: In Vivo Pharmacokinetic Evaluation of Compounds in SD Rats
Experimental Purpose: To Test the In Vivo Pharmacokinetics of the Compounds in SD Rats
The rodent pharmacokinetic characteristics after intravenous injection and oral administration of the compounds were tested using a standard protocol. The candidate compound was prepared as a clear solution during the experiment and given to SD rats for single intravenous injection and oral administration. The vehicle for intravenous injection and oral administration was a mixed vehicle composed of 5% dimethyl sulfoxide and 95% 5% solutol. Four male SD rats were used in this project. Two SD rats were administered intravenously, and plasma samples were collected at 0.083, 0.25, 0.5, 1, 2, 4, 8, and 24 hours after administration. The other two SD rats were administered orally by gavage, and plasma samples were collected at 0.25, 0.5, 1, 2, 4, 8, and 24 hours after administration. The plasma concentration was quantitatively analyzed by LC-MS/MS analysis method, and the pharmacokinetic parameters were calculated, such as peak concentration (Cmaz), clearance rate (CL), half-life (T1/2), […] (Vdss), area under drug-time curve (AUC0-last), bioavailability (F).

A short description of series [2]: In vivo pharmacokinetic evaluation in CD-1 mice. The conditions noted are these: male, mouse, plasma; for half-life: IV, read-out: Half-life T1/2 (IV) (converted); for clearance: read-out: Clearance rate CL; for Vd: read-out: Tissue distribution Vdss; for AUC(0-t): PO, read-out: Area under drug-time curve AUC0-last PO; for bioavailability: read-out: Bioavailability F; for Cmax: read-out: Peak concentration Cmax. As for the experimental part: Experimental Example 2: In Vivo Pharmacokinetic Evaluation of Compounds in CD-1 Mice
Experimental purpose: To test the in vivo pharmacokinetics of the compounds in CD-1 mice
CD-1 mice (male, 7 to 9 weeks old)
The rodent pharmacokinetic characteristics after intravenous injection and oral administration of the compounds were tested using a standard protocol. The candidate compound was prepared as a clear solution during the experiment and given to mice for single intravenous injection and oral administration. The vehicle for intravenous injection and oral administration was a mixed vehicle composed of 5% dimethyl sulfoxide and 95% 5% solutol. Four male CD-1 mice were used in this project. Two mice were administered intravenously (IV), and plasma samples were collected at 0 hours (before administration) and 0.0833, 0.25, 0.5, 1, 2, 4, 8, and 24 hours after administration. The other two mice were administered orally by gavage (PO), and plasma samples were collected at 0 hours (before administration) and 0.25, 0.5, 1, 2, 4, 8, and 24 hours after administration. The plasma concentration was quantitatively analyzed by LC-MS/MS analysis method, and the pharmacokinetic parameters were calculated, such as peak concentration (Cmax), clearance rate (CL), half-life (T1/2), […] (Vdss), area under drug-time curve (AUC0-last), bioavailability (F).

The target in a further series is T1, NLRP3 (Homo sapiens, UniProt Q96P20).
T1 construct: This experiment utilized the human-derived monocyte cell line THP1; endogenous in cells; host or cells: THP-1 (human monocyte line, PMA-differentiated into macrophages)
The series is described as follows: Detecting IC50 of NLRP3 inhibitor by using THP-1 cells (IL-1β secretion, CBA). In kind it is cell-based. The conditions noted are these: PMA/LPS/ATP, IL-1β in supernatant. An excerpt:
1. Experimental principle: This experiment utilized the human-derived monocyte cell line THP1 to investigate the inhibitory activity (IC50) of NLRP3 inhibitor on cellular IL-1β secretion. PMA (12-O-tetradecanoylphorbol-13-acetate) was used to differentiate the monocyte cell line THP1 into mature macrophages, which were then stimulated using LPS (lipopolysaccharide), an agonist of the Toll-like receptor TLR4, to activate the transcriptional activity of the inflammasome NLRP3 and the expression of pro-IL-1β, a precursor of IL-1β. At this time, the inhibitor of NLRP3 was added, and then ATP (adenosine triphosphate) was added to further mature and activate NLRP3, and activate downstream caspase-1. Activated caspase-1 may enzymatically process pro-IL-1β into mature IL-1β that can be secreted.
(1) The density of THP1 cells was adjusted to 5×10^5 cells/mL, then PMA was added, and the final concentration was adjusted to 100 ng/mL. The cells were inoculated 200 μL/well into a 96-well flat-bottom plate, stimulated overnight (<16 hours if possible) at 37° C. and 5% CO2.
(2) The supernatant was discarded the next day, and then the cells were carefully washed twice with Dulbecco's phosphate-buffered saline (200 μL/time).
(3) The cells were stimulated with LPS at a final concentration of 100 ng/mL, added to a 96-well plate (200 μL/well), and cultured at 37° C. and 5% CO2 for 3 hours.
The cells were incubated for 1 hour in a 37° C., 5% CO2 incubator.
(5) ATP was added to each well with a final concentration of 5 mM, and cultured overnight (>18 hours) at 37° C. and 5% CO2.
(6) On the third day, 5 μL of the supernatant was taken, diluted 10-fold, and the content of IL-1β in the supernatant was detected by cytometric bead array (CBA).

The target of series [3] is T2, hERG potassium ion channel (Homo sapiens, UniProt Q12809).
T2 construct: expressed in transfected cells; host or cells: CHO (CHO-hERG cell line)
The series is described as follows: Inhibition test on hERG potassium ion channel (automated patch clamp, CHO-hERG cells). The format is cell-based. The conditions noted are these: Qpatch, highest test concentration 40.00 μM. The method, then: Experimental Example 4: Inhibition Test of Compounds on hERG Potassium Ion Channel
Experimental purpose: To detect the effect of the compounds to be tested on the hERG potassium channel by an automated patch clamp method.
1.1 CHO-hERG cells were cultured in a 175 cm^2 culture flask. When the cell density reached 60 to 80%, the culture medium was removed, and the cells were washed once with 7 mL of PBS (phosphate buffered saline), and then digested with 3 mL of digestion solution.
1.2 After the digestion was completed, 7 mL of culture medium was added to neutralize, then the mixture was centrifuged, and the supernatant was aspirated, and then 5 mL of culture medium was added to re-suspend, ensuring 2 to 5×10^6/mL of cell density.
The process of single cell high impedance sealing and whole cell mode formation were all automatically completed by Qpatch instrument, after obtaining the whole cell recording mode, the cells were clamped at −80 mV, before giving a 5-second +40 mV depolarization stimulus, a 50 millisecond −50 mV prevoltage was given first, and then repolarized to −50 mV for 5 seconds, then returned to −80 mV This voltage stimulation was applied every 15 seconds and after recording for 2 minutes, extracellular fluid was recordings for 5 minutes, and then the administration process was started. The compound concentration was given from the lowest test concentration, each test concentration was given for 2.5 minutes, and 3 μM of Cisapride as the positive control compound was given after all concentrations were continuously given. At least 3 cells (n≥3) were tested at each concentration.
4.1 The mother solution of the compound was diluted with DMSO, and 10 μL of mother solution of the compound was added to 20 μL of DMSO solution, and was 3-fold diluted continuously to 6 DMSO concentrations.
4.2 4 μL of compounds with 6 DMSO concentrations were added to 396 μL of extracellular fluid, 100-fold diluted to 6 intermediate concentrations, and then 80 μL of the compounds with 6 intermediate concentrations were added to 320 μL of extracellular fluid, 5-fold diluted to the final concentration to be tested.
4.3 The highest test concentration was 40.00 μM, in a total of 6 concentrations of 40.00, 13.33, 4.44, 1.48, 0.49, and 0.16 μM respectively.
4.4 The content of DMSO in the final test concentration was not more than 0.2%, and this concentration of DMSO had no effect on hERG potassium channel.
4.5 The whole dilution process of compound preparation was completed by Bravo instrument.
The experimental data were analyzed by GraphPad Prism 5.0 software.
For orientation: The hERG channel carries a current that helps repolarise heart muscle cells.

Counter-ions that a name gives are not always drawn. Bounds are passed on as bounds.

T2 sequence (Q12809 whole entry): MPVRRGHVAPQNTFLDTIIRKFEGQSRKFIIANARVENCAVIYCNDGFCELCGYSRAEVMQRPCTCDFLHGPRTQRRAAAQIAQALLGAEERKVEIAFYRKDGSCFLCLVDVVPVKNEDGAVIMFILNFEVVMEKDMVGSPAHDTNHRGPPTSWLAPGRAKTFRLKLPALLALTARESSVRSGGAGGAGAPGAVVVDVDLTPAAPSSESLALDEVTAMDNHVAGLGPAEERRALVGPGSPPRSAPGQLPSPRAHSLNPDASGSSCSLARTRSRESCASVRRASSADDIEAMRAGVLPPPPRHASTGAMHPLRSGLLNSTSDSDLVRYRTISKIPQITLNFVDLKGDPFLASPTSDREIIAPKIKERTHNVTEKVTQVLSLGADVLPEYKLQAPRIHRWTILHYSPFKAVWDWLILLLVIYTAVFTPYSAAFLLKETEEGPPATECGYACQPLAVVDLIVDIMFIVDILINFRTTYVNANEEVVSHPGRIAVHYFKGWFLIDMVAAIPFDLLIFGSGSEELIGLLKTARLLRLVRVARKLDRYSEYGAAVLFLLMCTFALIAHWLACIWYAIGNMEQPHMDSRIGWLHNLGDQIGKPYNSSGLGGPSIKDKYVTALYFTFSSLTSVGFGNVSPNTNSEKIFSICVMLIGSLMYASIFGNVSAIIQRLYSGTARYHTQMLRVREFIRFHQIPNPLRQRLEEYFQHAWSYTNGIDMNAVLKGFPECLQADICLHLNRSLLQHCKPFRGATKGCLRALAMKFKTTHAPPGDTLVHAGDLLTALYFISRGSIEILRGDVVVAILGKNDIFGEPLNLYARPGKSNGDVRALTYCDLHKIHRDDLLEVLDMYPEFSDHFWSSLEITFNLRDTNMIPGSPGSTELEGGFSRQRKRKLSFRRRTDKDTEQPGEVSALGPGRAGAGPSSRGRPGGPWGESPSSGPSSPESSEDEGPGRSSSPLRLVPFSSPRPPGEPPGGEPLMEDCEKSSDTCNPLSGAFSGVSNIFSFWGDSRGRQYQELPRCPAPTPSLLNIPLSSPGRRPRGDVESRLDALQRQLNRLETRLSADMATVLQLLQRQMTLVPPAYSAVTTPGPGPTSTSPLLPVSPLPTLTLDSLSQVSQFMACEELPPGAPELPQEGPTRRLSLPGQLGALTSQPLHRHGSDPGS
T1 sequence (Q96P20 whole entry): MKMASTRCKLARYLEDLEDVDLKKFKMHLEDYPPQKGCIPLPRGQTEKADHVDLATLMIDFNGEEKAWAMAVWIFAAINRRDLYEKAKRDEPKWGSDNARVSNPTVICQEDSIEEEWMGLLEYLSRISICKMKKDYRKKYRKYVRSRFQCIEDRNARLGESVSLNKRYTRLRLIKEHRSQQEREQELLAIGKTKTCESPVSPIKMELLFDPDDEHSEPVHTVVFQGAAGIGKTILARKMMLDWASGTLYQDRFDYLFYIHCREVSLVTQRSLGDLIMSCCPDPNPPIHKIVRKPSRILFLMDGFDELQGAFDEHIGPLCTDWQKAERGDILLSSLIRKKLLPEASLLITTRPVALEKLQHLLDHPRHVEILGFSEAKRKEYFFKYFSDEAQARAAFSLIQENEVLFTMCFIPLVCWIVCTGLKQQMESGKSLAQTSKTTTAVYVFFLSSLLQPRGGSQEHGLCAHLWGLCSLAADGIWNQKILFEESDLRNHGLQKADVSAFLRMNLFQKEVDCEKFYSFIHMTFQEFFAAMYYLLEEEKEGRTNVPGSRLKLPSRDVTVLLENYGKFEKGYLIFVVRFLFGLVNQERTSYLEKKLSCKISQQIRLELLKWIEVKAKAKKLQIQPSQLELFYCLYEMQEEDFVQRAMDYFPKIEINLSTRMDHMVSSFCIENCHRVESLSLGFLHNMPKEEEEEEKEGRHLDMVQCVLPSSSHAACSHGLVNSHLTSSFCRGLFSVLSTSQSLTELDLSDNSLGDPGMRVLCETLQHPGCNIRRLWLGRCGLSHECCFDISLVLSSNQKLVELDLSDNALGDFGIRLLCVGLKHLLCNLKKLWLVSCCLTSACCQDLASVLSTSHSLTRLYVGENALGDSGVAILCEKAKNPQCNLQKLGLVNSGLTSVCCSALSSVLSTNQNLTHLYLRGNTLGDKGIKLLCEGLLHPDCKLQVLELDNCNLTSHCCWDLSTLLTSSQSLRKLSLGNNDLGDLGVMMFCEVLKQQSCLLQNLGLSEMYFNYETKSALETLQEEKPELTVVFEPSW

By bioavailability is commonly meant the share of a dose that reaches the circulation, judged against a reference dose that is usually intravenous. The term IC50 denotes the concentration needed to halve the response being measured. For the molecule `Cc1cc(N[C@@H]2CCCN(C)C2)nnc1-c1ccc2sccc2c1O` [Hydrochloride of compound 20], in series [1], the half-life is 1.81 h, the clearance came to 48.5 mL/min/kg, the Vd turned out to be 6.79 L/kg and the AUC(0-t) came to 0.926 µM·h. Moreover, in series [1], the bioavailability stood at 49.7% and the Cmax was 0.204 µM. For the same molecule, in series [2] (2 mg/kg, dose IV/PO 2/10 mg/kg), the half-life was 3.26 h, the clearance came to 28.7 mL/min/kg and the Vd was determined as 7.03 L/kg. Moreover, in series [2] (dose IV/PO 2/10 mg/kg), the AUC(0-t) stood at 16 µM·h, the bioavailability stood at 96.5% and the Cmax was 4.29 µM. This molecule also showed an IC50 against NLRP3 of 0.08 nM. In series [3], this molecule registered an IC50 of 10300 nM.

Consider `Cc1cc(N[C@@H]2CCCN(CC#N)C2)nnc1-c1ccc2sccc2c1O` [Compound 53], for which, in series [1], the half-life is 1.12 h, the clearance was determined as 10.3 mL/min/kg, the Vd amounted to 0.796 L/kg and the AUC(0-t) is 4.69 µM·h. In series [1], the bioavailability was determined as 49.8% and the Cmax turned out to be 1.52 µM. This molecule also returned an IC50 against NLRP3 of 0.74 nM. For the same molecule, the IC50 in series [3] turned out to be 17100 nM.

`Cc1cc(N[C@@H]2CCCN(CC(F)(F)F)C2)nnc1-c1ccc2sccc2c1O` [Compound 48] returned an IC50 against NLRP3 of 2.87 nM. Moreover, the IC50 at 2.5 min in series [3] (human, CHO cells that express hERG (CHO-hERG)) is at least 42600 nM.

For the molecule `Cc1cc(N[C@H]2CN3CCC2CC3)nnc1-c1ccc2c(c1O)CCC2` [Hydrochloride of compound 7], the figures for the 50% inhibitory concentration (IC50) (against NLRP3; in series [3]) were 5.72 nM and 37500 nM, respectively.

Consider `Cc1cc(N[C@@H]2CCCN(C3COC3)C2)nnc1-c1ccc2c(c1O)CCC2` [Compound 13], for which the IC50 was 1.55 nM against NLRP3 and 21100 nM in series [3].

For `Cc1cc(NC2CN(C)CC(F)(F)C2)nnc1-c1ccc2sccc2c1O` (single isomer, unassigned) [Compound 70a], the IC50 worked out at 23.4 nM against NLRP3 and 34200 nM in series [3].

Turning to `Cc1cc(NC[C@@H](C)O)nnc1-c1ccc2sccc2c1O` [Hydrochloride of compound 57], the IC50 was 3.37 nM at NLRP3 and over 40000 nM in series [3].

`Cc1cc(NC2CN(C)CC(F)(F)C2)nnc1-c1ccc2sccc2c1O` (single isomer, unassigned) [Compound 70b]: the IC50 against NLRP3 was 3.33 nM; in series [3] it was over 40000 nM.

`Cc1cc(N[C@@H]2CCCN(CC#N)C2)nnc1-c1ccc2c(c1O)CCC2` [Compound 12a]: the IC50 against NLRP3 was determined as 0.97 nM; in series [3], 31500 nM.

With `Cc1cc(N[C@H]2COC[C@@H]2O)nnc1-c1ccc2sccc2c1O` [Hydrochloride of compound 59], the IC50 is 1.73 nM against NLRP3 and over 40000 nM in series [3].

As for `Cc1cc(N[C@@H]2CCCN(C3COC3)C2)nnc1-c1ccc(C2CC2)cc1O` [Compound 22], in series [2] (1 mg/kg, dose IV/PO 1/2 mg/kg), the half-life is 1.13 h, the clearance was found to be 9.56 mL/min/kg and the Vd turned out to be 0.718 L/kg. In series [2] (dose IV/PO 1/2 mg/kg), the AUC(0-t) came to 5.33 µM·h, the bioavailability stood at 62.4% and the Cmax came out at 3.22 µM. Also, on NLRP3, half-maximal inhibition (IC50) required 9.2 nM. In series [3], this molecule came in with an IC50 of over 40000 nM.

As to `Cc1cc(N[C@@H]2CCCN(C3COC3)C2)nnc1-c1ccc(-c2ccc(F)cc2)cc1O` [Compound 21], the IC50 at NLRP3 is 62.7 nM; in series [3] it was 10600 nM.

Regarding `Cc1cc(N[C@@H]2CCCN(CC#N)C2)nnc1-c1ccc(C2CC2)cc1O` [Compound 23], in series [2] (1 mg/kg, dose IV/PO 1/2 mg/kg), the half-life was 1.24 h, the clearance is 6.49 mL/min/kg and the Vd worked out at 0.618 L/kg. Moreover, in series [2] (dose IV/PO 1/2 mg/kg), the AUC(0-t) came to 10.4 µM·h, the bioavailability worked out at 79.9% and the Cmax came to 3.84 µM. Also, on NLRP3, the IC50 amounted to 4.7 nM. In addition, the IC50 in series [3] was over 40000 nM.
